Activity calls are given as the source filed them. The rule behind the calls is not given here.
Columns and labels:
MCF-10A = assay: Cytotoxicity against human MCF10A cells assessed as reduction in cell viability by MTT assay; format: cell-based
HCT-116 = assay: Cytotoxicity against human HCT116 cells assessed as reduction in cell viability by MTT assay; format: cell-based
MCF7 = assay: Cytotoxicity against human MCF7 cells assessed as reduction in cell viability by MTT assay; format: cell-based
[1] = Cytotoxicity against human […] cells assessed as reduction in cell viability by MTT assay; format: cell-based
DNA [2] = assay: Binding affinity to Escherichia coli supercoiled pHOT1 DNA assessed as inhibition of topoisomerase-1-mediated relaxation of supercoiled DNA at 2.5 to 20 uM after 30 mins by agarose gel electrophoresis method; format: nucleic-acid assay
Calf thymus DNA [3] = assay: Binding affinity to calf thymus DNA at 0.95 uM by fluorescence spectral analysis; format: nucleic-acid assay; conditions: Bos taurus
Calf thymus DNA [4] = assay: Binding affinity to calf thymus DNA assessed as bathochromic shift at 2.38 x 10^-6M by absorption spectral analysis; format: nucleic-acid assay; conditions: Bos taurus
[5] = Drug uptake in human U251 cell nucleus treated at 10 to 20 uM after 20 to 40 hrs by fluorescent microscopic method; format: ADME, subcellular; conditions: u-251, 20 µM
Human alphaherpesvirus 1 [6] = assay: Antiviral activity against Herpes simplex virus-1 infected in cells; format: functional, organism-based
Calf thymus DNA [7] = assay: Binding affinity to calf thymus DNA assessed as hypochromic shift at 2.38 x 10^-6M by absorption spectral analysis; format: nucleic-acid assay; conditions: Bos taurus
Calf thymus DNA [8] = assay: Binding affinity to calf thymus DNA groove using DNA cholesteric liquid crystal dispersions assessed as positive band appearance at 0.47 to 4.73 uM by CD spectral analysis; format: nucleic-acid assay; conditions: Bos taurus
Human alphaherpesvirus 1 [9] = assay: Antiviral activity against Herpes simplex virus-1 strain F infected in African green monkey Vero cells assessed as late protein gb level at 50 ug/ml after 48 hrs by immunostaining based luminescent microscopic method (reference value: 95.6%); format: functional
DNA [10] = assay: Binding affinity to Escherichia coli supercoiled pHOT1 DNA assessed as inhibition of topoisomerase-1-mediated relaxation of supercoiled DNA at 10 uM after 30 mins by agarose gel electrophoresis method; format: nucleic-acid assay
Cytomegalovirus = assay: Antiviral activity against CMV infected in cells; format: functional, organism-based
[11] = target: Human immunodeficiency virus type 1 integrase (Human immunodeficiency virus 1, UniProt Q7ZJM1); assay: Inhibition of HIV1 integrase
Calf thymus DNA [12] = assay: Binding affinity to calf thymus DNA assessed as bathochromic shift at 4.4 x 10^-6M by absorption spectral analysis; format: nucleic-acid assay; conditions: Bos taurus
Calf thymus DNA [13] = assay: Binding affinity to calf thymus DNA groove using DNA cholesteric liquid crystal dispersions assessed as positive band appearance at 1.1 to 5.45 uM by CD spectral analysis; format: nucleic-acid assay; conditions: Bos taurus
Calf thymus DNA [14] = assay: Binding affinity to calf thymus DNA at 1 uM by fluorescence spectral analysis; format: nucleic-acid assay; conditions: Bos taurus
Calf thymus DNA [15] = assay: Binding affinity to calf thymus DNA assessed as hypochromic shift at 4.4 x 10^-6M by absorption spectral analysis; format: nucleic-acid assay; conditions: Bos taurus

Chain of Human immunodeficiency virus type 1 integrase (Q7ZJM1 whole entry): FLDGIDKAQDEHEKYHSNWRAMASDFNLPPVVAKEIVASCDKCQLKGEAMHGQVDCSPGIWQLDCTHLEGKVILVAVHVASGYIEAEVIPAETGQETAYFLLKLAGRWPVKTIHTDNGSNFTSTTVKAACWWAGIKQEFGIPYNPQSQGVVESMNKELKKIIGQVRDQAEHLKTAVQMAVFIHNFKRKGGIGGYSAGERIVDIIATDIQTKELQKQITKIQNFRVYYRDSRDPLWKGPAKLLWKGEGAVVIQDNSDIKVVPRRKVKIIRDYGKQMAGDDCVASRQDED

inhibition (DNA [2]) | Compound | IC50 (MCF-10A) | IC50 (HCT-116) | IC50 (MCF7) | IC50 [1] | also measured
 | CN1CCN(c2ccc3nc(-c4ccc5nc(CNC(=O)CCCCCCCCCCCCC(=O)NCc6nc7ccc(-c8nc9ccc(N%10CCN(C)CC%10)cc9[nH]8)cc7[nH]6)[nH]c5c4)[nH]c3c2)CC1 | 20 to 90 µM | 20 to 90 µM | 20 to 90 µM | 20 to 90 µM | 
 | CN1CCN(c2ccc3nc(-c4ccc5nc(CNC(=O)CCCCCCC(=O)NCc6nc7ccc(-c8nc9ccc(N%10CCN(C)CC%10)cc9[nH]8)cc7[nH]6)[nH]c5c4)[nH]c3c2)CC1 | 20 to 90 µM | 20 to 90 µM | 20 to 90 µM | 20 to 90 µM | 
 | CN1CCN(c2ccc3nc(-c4ccc5nc(CNC(=O)CCCCCCCCC(=O)NCc6nc7ccc(-c8nc9ccc(N%10CCN(C)CC%10)cc9[nH]8)cc7[nH]6)[nH]c5c4)[nH]c3c2)CC1 | 20 to 90 µM | 20 to 90 µM | 20 to 90 µM | 20 to 90 µM | 
Active | CN1CCN(c2ccc3nc(-c4ccc5nc(CNC(=O)CC(=O)NCc6nc7ccc(-c8nc9ccc(N%10CCN(C)CC%10)cc9[nH]8)cc7[nH]6)[nH]c5c4)[nH]c3c2)CC1 | 20 to 90 µM | 20 to 90 µM | 20 to 90 µM | 20 to 90 µM | 
 | CN1CCN(c2ccc3nc(-c4ccc5nc(CNC(=O)CCC(=O)NCc6nc7ccc(-c8nc9ccc(N%10CCN(C)CC%10)cc9[nH]8)cc7[nH]6)[nH]c5c4)[nH]c3c2)CC1 | 20 to 90 µM | 20 to 90 µM | 20 to 90 µM | 20 to 90 µM | 
Active | CN(C)CCCNC(=O)c1ccc2nc(-c3ccc4nc(CNC(=O)CCCCCCCC(=O)NCc5nc6ccc(-c7nc8ccc(C(=O)NCCCN(C)C)cc8[nH]7)cc6[nH]5)[nH]c4c3)[nH]c2c1 | > 240 µM | > 240 µM | > 240 µM | > 240 µM | Activity (Calf thymus DNA [3]): Active; Activity (Calf thymus DNA [4]): Active; Drug uptake [5]: Active; Activity (Human alphaherpesvirus 1 [6]): Active; Activity (Calf thymus DNA [7]): Active; Activity (Calf thymus DNA [8]): Active; Activity (Human alphaherpesvirus 1 [9]): 10%
Active | CN(C)CCCNC(=O)c1ccc2nc(-c3ccc4nc(CNC(=O)CCCCCCCCCC(=O)NCc5nc6ccc(-c7nc8ccc(C(=O)NCCCN(C)C)cc8[nH]7)cc6[nH]5)[nH]c4c3)[nH]c2c1 | > 240 µM | > 240 µM | > 240 µM | > 240 µM | Drug uptake [5]: Active
 | CN1CCN(c2ccc3nc(-c4ccc5nc(CNC(=O)CCCC(=O)NCc6nc7ccc(-c8nc9ccc(N%10CCN(C)CC%10)cc9[nH]8)cc7[nH]6)[nH]c5c4)[nH]c3c2)CC1 | 20 to 90 µM | 20 to 90 µM | 20 to 90 µM | 20 to 90 µM | inhibition (DNA [10]): Active
Active | CN(C)CCCNC(=O)c1ccc2nc(-c3ccc4nc(CNC(=O)CCCCCCCCCCCC(=O)NCc5nc6ccc(-c7nc8ccc(C(=O)NCCCN(C)C)cc8[nH]7)cc6[nH]5)[nH]c4c3)[nH]c2c1 | > 240 µM | > 240 µM | > 240 µM | > 240 µM | Activity (Cytomegalovirus): Active; IC50 [11]: 0.06 µM; Drug uptake [5]: Active; Activity (Human alphaherpesvirus 1 [6]): Active
Active | CN(C)CCCNC(=O)c1ccc2nc(-c3ccc4nc(CNC(=O)CC(=O)NCc5nc6ccc(-c7nc8ccc(C(=O)NCCCN(C)C)cc8[nH]7)cc6[nH]5)[nH]c4c3)[nH]c2c1 | > 240 µM | > 240 µM | > 240 µM | > 240 µM | Activity (Human alphaherpesvirus 1 [6]): Active
Active | CN(C)CCCNC(=O)c1ccc2nc(-c3ccc4nc(CNC(=O)CCCCCC(=O)NCc5nc6ccc(-c7nc8ccc(C(=O)NCCCN(C)C)cc8[nH]7)cc6[nH]5)[nH]c4c3)[nH]c2c1 | > 240 µM | > 240 µM | > 240 µM | > 240 µM | Activity (Calf thymus DNA [12]): Active; Drug uptake [5]: Active; Activity (Calf thymus DNA [13]): Active; Activity (Calf thymus DNA [14]): Active; Activity (Calf thymus DNA [15]): Active
 | CN1CCN(c2ccc3nc(-c4ccc5nc(CNC(=O)CCCCCCCCCCC(=O)NCc6nc7ccc(-c8nc9ccc(N%10CCN(C)CC%10)cc9[nH]8)cc7[nH]6)[nH]c5c4)[nH]c3c2)CC1 | 20 to 90 µM | 20 to 90 µM | 20 to 90 µM | 20 to 90 µM | 
 | CN1CCN(c2ccc3nc(-c4ccc5nc(CNC(=O)CCCCCCCCCC(=O)NCc6nc7ccc(-c8nc9ccc(N%10CCN(C)CC%10)cc9[nH]8)cc7[nH]6)[nH]c5c4)[nH]c3c2)CC1 | 20 to 90 µM | 20 to 90 µM | 20 to 90 µM | 20 to 90 µM | 
 | Nc1nc2c(ncn2COCCO)c(=O)[nH]1 [ACYCLOVIR] |  |  |  |  | Activity (Human alphaherpesvirus 1 [9]): 0.1%
Active | CN1CCN(c2ccc3nc(-c4ccc5nc(CNC(=O)CCCCCC(=O)NCc6nc7ccc(-c8nc9ccc(N%10CCN(C)CC%10)cc9[nH]8)cc7[nH]6)[nH]c5c4)[nH]c3c2)CC1 | 20 to 90 µM | 20 to 90 µM | 20 to 90 µM | 20 to 90 µM | 
 | CN1CCN(c2ccc3nc(-c4ccc5nc(CNC(=O)CCCCCCCCCCCC(=O)NCc6nc7ccc(-c8nc9ccc(N%10CCN(C)CC%10)cc9[nH]8)cc7[nH]6)[nH]c5c4)[nH]c3c2)CC1 | 20 to 90 µM | 20 to 90 µM | 20 to 90 µM | 20 to 90 µM | 
Active | CN(C)CCCNC(=O)c1ccc2nc(-c3ccc4nc(CNC(=O)CCCC(=O)NCc5nc6ccc(-c7nc8ccc(C(=O)NCCCN(C)C)cc8[nH]7)cc6[nH]5)[nH]c4c3)[nH]c2c1 | > 240 µM | > 240 µM | > 240 µM | > 240 µM | Drug uptake [5]: Active
Active | CN1CCN(c2ccc3nc(-c4ccc5nc(CNC(=O)CCCCCCCC(=O)NCc6nc7ccc(-c8nc9ccc(N%10CCN(C)CC%10)cc9[nH]8)cc7[nH]6)[nH]c5c4)[nH]c3c2)CC1 | 20 to 90 µM | 20 to 90 µM | 20 to 90 µM | 20 to 90 µM | 
 | CN1CCN(c2ccc3nc(-c4ccc5nc(CNC(=O)CCCCC(=O)NCc6nc7ccc(-c8nc9ccc(N%10CCN(C)CC%10)cc9[nH]8)cc7[nH]6)[nH]c5c4)[nH]c3c2)CC1 | 20 to 90 µM | 20 to 90 µM | 20 to 90 µM | 20 to 90 µM | 

Reference: ChEMBL document CHEMBL4219185, “DNA sequence-specific ligands. XVII. Synthesis, spectral properties, virological and biochemical studies of fluorescent dimeric bisbenzimidazoles DBA(n)” (Bioorg Med Chem, 2018)
